Among the data in patent US20220388964A1 (HiberCell, Inc., priority 2019, published 2022) are IC50 values, retold here.

This test addresses GCN2 (Homo sapiens, UniProt Q9P2K8). Briefly: TR-FRET biochemical assay for inhibition of GCN2 (Example 106, for Example 1-4BB).

Chain of GCN2 (Q9P2K8 whole entry): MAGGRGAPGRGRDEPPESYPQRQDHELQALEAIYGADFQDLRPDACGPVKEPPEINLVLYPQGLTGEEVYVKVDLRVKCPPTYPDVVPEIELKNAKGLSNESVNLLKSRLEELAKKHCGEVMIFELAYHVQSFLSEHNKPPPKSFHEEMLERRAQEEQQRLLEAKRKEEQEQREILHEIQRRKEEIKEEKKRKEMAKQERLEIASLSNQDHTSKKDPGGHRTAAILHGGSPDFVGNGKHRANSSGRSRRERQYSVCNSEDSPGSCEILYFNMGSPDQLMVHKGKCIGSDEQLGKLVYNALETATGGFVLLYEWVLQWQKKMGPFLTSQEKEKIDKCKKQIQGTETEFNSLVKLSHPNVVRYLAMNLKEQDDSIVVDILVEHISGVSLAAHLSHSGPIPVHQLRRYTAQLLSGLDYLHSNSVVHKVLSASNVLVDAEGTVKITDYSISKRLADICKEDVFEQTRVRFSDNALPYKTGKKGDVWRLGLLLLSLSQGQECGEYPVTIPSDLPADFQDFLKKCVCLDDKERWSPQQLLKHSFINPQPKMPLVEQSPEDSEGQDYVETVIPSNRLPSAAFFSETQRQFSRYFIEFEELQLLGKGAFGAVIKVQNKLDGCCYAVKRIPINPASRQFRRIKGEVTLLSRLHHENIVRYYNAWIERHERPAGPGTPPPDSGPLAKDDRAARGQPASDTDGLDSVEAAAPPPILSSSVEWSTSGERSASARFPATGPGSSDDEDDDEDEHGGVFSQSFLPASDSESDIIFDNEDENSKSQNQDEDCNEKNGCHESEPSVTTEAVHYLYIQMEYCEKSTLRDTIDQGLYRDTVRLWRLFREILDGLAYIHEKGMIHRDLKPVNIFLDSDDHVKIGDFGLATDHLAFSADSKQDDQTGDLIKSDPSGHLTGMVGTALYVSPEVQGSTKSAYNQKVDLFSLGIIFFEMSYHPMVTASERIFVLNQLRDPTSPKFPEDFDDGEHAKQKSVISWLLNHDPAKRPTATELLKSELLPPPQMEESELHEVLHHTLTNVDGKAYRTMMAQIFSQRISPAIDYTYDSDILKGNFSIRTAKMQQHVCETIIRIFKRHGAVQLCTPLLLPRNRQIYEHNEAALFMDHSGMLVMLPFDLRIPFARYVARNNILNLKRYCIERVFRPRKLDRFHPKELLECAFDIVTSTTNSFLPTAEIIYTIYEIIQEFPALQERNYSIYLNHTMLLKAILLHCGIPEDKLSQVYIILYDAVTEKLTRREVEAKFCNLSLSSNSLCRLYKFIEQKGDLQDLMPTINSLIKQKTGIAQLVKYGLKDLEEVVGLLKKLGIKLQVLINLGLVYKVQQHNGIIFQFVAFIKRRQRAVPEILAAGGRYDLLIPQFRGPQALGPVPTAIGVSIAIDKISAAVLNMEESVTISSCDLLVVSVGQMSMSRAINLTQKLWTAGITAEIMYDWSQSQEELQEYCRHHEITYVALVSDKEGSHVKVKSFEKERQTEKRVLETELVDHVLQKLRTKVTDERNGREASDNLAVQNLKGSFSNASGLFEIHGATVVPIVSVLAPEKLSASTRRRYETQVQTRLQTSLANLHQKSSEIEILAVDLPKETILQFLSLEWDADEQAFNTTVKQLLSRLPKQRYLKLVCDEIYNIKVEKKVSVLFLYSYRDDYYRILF

`COc1ncc(Cl)cc1S(=O)(=O)Nc1cccc(-c2ccc3c(-c4ncc[nH]4)n[nH]c3c2F)c1F` [Example 2M, 5-chloro-N-(2-fluoro-3-(7-fluoro-3-(1H-imidazol-2-yl)-1H-indazol-6-yl)phenyl)-2-methoxy-pyridine-3-sulfonamide] came in with an IC50 (Table 8) of less than 500 nM. Compound `O=S(=O)(Nc1ccc(F)c(-c2ccc3c(-c4ncc[nH]4)n[nH]c3c2F)c1F)c1cc(F)ccc1F` [Example 2BH, N-(2,4-difluoro-3-(7-fluoro-3-(1H-imidazol-2-yl)-1H-indazol-6-yl)phenyl)-2,5-difluorobenzenesulfonamide] showed a concentration for half-maximal inhibition (IC50) (Table 8) of less than 500 nM. For the setting “Table 8”, `Cc1nn(C)cc1S(=O)(=O)Nc1cccc(-c2ccc3c(-c4ncc[nH]4)n[nH]c3c2F)c1F` [Example 2N, N-(2-fluoro-3-(7-fluoro-3-(1H-imidazol-2-yl)-1H-indazol-6-yl)phenyl)-1,3-dimethyl-1H-pyrazole-4-sulfonamide] gave a 50% inhibitory concentration (IC50) of 2500 to 10000 nM. For the setting “Table 9”, `COc1ncc(Cl)cc1S(=O)(=O)Nc1nccc(-c2ccc3c(-c4ncc[nH]4)n[nH]c3c2F)c1F` [Example 11, 5-Chloro-N-(3-fluoro-4-(7-fluoro-3-(1H-imidazol-2-yl)-1H-indazol-6-yl)pyridin-2-yl)-2-methoxypyridine-3-sulfonamide] gave an IC50 greater than 10000 nM.

In turn, `O=S(=O)(Nc1ccc(F)c(-c2ccc3c(-c4ncc[nH]4)n[nH]c3c2F)c1F)c1cc(Cl)ccc1CO` [Example 2BW, 5-chloro-N-(2,4-difluoro-3-(7-fluoro-3-(1H-imidazol-2-yl)-1H-indazol-6-yl)phenyl)-2-(hydroxyl-methyl)benzene-sulfonamide] registered a concentration for half-maximal inhibition (IC50) (Table 8) of less than 500 nM.

As to `Cc1ncc(F)cc1S(=O)(=O)Nc1ccc(F)c(-c2ccc3c(C(=O)Nc4cn[nH]c4)n[nH]c3c2F)c1F` [Example 3DS, 6-(2,6-difluoro-3-((5-fluoro-2-methylpyridine)-3-sulfonamido)phenyl)-7-fluoro-N-(1H-pyrazol-4-yl)-1H-indazole-3-carboxamide], where the note is “Table 9”, the 50% inhibitory concentration (IC50) is less than 500 nM. The compound `Cc1ncc(F)cc1S(=O)(=O)Nc1ccc(F)c(-c2ccc3c(-c4ncc[nH]4)n[nH]c3c2F)c1F` [Example 2AB, N-(2,4-difluoro-3-(7-fluoro-3-(1H-imidazol-2-yl)-1H-indazol-6-yl)phenyl)-5-fluoro-2-methylpyridine-3-sulfonamide] returned an IC50 (Table 8) of less than 500 nM. On to `COc1ncc(Cl)cc1S(=O)(=O)Nc1ccc(F)c(-c2ccc3c(C(=O)Nc4cnn(CCO)c4)n[nH]c3c2F)c1F` [Example 3CT, 6-(3-((5-chloro-2-methoxy-pyridine)-3-sulfonamido)-2,6-difluorophenyl)-7-fluoro-N-(1-(2-hydroxyethyl)-1H-pyrazol-4-yl)-1H-indazole-3-carboxamide], for which, where the note is “Table 9”, the IC50 was less than 500 nM. Same read-out and setting: in the case of `COc1ncc(Cl)cc1S(=O)(=O)Nc1cccc(-c2cc3[nH]nc(C(=O)NCCCO)c3cn2)c1F` [Example 3BC, 6-(3-((5-chloro-2-methoxy-pyridine)-3-sulfonamido)-2-fluorophenyl)-N-(3-hydroxy-propyl)-1H-pyrazolo[4,3-c]pyridine-3-carboxamide] it was less than 500 nM. On to `CCn1cc(S(=O)(=O)Nc2ccc(F)c(-c3ccc4c(-c5ncc[nH]5)n[nH]c4c3F)c2F)cn1` [Example 2D, N-(2,4-difluoro-3-(7-fluoro-3-(1H-imidazol-2-yl)-1H-indazol-6-yl)phenyl)-1-ethyl-1H-pyrazole-4-sulfonamide], for which, where the note is “Table 8”, the concentration for half-maximal inhibition (IC50) is 2500 to 10000 nM. Under “Table 8”, `Cc1ccc(F)cc1S(=O)(=O)Nc1ccc(F)c(-c2ccc3c(-c4ncc[nH]4)n[nH]c3c2F)c1F` [Example 2BJ, N-(2,4-difluoro-3-(7-fluoro-3-(1H-imidazol-2-yl)-1H-indazol-6-yl)phenyl)-5-fluoro-2-methylbenzenesulfonamide] displayed an IC50 of less than 500 nM. Take `COc1ncc(Cl)cc1S(=O)(=O)Nc1ccc(F)c(-c2ccc3c(C(=O)NC4COC4)n[nH]c3c2F)c1F` [Example 3B, 6-(3-((5-chloro-2-methoxy-pyridine)-3-sulfonamido)-2,6-difluorophenyl)-7-fluoro-N-(oxetan-3-yl)-1H-indazole-3-carboxamide]: the IC50 (Table 9) lay in the range of 2500 to 10000 nM.

Regarding `N#Cc1ccccc1S(=O)(=O)Nc1ccc(F)c(-c2ccc3c(-c4ncc[nH]4)n[nH]c3c2F)c1F` [Example 2BK, 2-cyano-N-(2,4-difluoro-3-(7-fluoro-3-(1H-imidazol-2-yl)-1H-indazol-6-yl)phenyl)-benzenesulfonamide], the IC50 (Table 8) was less than 500 nM. The compound `COc1ncc(Cl)cc1S(=O)(=O)Nc1cccc(-c2ncc3c(-c4ncc[nH]4)n[nH]c3c2F)c1F` [Example 3AG, 5-chloro-N-(2-fluoro-3-(7-fluoro-3-(1H-imidazol-2-yl)-1H-pyrazolo[4,3-c]pyridin-6-yl)phenyl)-2-methoxy-pyridine-3-sulfonamide] had an IC50 (Table 9) of less than 500 nM.

In the case of `COc1ncc(F)cc1S(=O)(=O)Nc1ccc(F)c(-c2ccc3c(C(=O)NCCCNC(C)=O)n[nH]c3c2F)c1F` [Example 3AV, N-(3-acetamidopropyl)-6-(2,6-difluoro-3-((5-fluoro-2-methoxypyridine)-3-sulfon-amido)phenyl)-7-fluoro-1H-indazole-3-carboxamide], the IC50 (Table 9) was less than 500 nM. In turn, `COc1ncc(F)cc1S(=O)(=O)Nc1ncc(F)c(-c2ccc3c(C(N)=O)n[nH]c3c2F)c1F` [Example 3M, 6-(3,5-difluoro-2-((5-fluoro-2-methoxypyridine)-3-sulfonamido)pyridin-4-yl)-7-fluoro-1H-indazole-3-carboxamide] had a 50% inhibitory concentration (IC50) (Table 9) greater than 10000 nM. On the same count and under the same terms, the figure for `O=S(=O)(Nc1ccc(F)c(-c2ccc3c(-c4ncc[nH]4)n[nH]c3c2F)c1F)c1cccn2ccnc12` [Example 3O, N-(2,4-difIuoro-3-(7-fluoro-3-(1H-imidazol-2-yl)-1H-indazol-6-yl)phenyl)-imidazo[1,2-a]pyridine-8-sulfonamide] is less than 500 nM. The same measure, in the same setting: in the case of `COc1ncc(Cl)cc1S(=O)(=O)Nc1cc(F)cc(-c2ccc3c(C(N)=O)n[nH]c3c2F)c1F` [Example 3CF, 6-(3-((5-chloro-2-methoxy-pyridine)-3-sulfonamido)-2,5-difluorophenyl)-7-fluoro-1H-indazole-3-carboxamide] it was less than 500 nM; in that of `COc1ncc(Cl)cc1S(=O)(=O)Nc1ccc(F)c(-c2ccc3c(C(=O)Nc4nn[nH]n4)n[nH]c3c2F)c1F` [Example 3CU, 6-(3-((5-chloro-2-methoxy-pyridine)-3-sulfonamido)-2,6-difluorophenyl)-7-fluoro-N-(2H-tetrazol-5-yl)-1H-indazole-3-carboxamide], less than 500 nM. In turn, `COc1nn(C)cc1S(=O)(=O)Nc1ccc(F)c(-c2ccc3c(-c4ncc[nH]4)n[nH]c3c2F)c1F` [Example 2K, N-(2,4-difluoro-3-(7-fluoro-3-(1H-imidazol-2-yl)-1H-indazol-6-yl)phenyl)-3-methoxy-1-methyl-1H-pyrazole-4-sulfonamide] had an IC50 (Table 8) of 500 to 2500 nM. Still for that read-out and setting: in the case of `COc1ncc(Cl)cc1S(=O)(=O)Nc1cccc(-c2ccc3c(-c4ncc[nH]4)n[nH]c3c2F)c1Cl` [Example 2O, 5-chloro-N-(2-chloro-3-(7-fluoro-3-(1H-imidazol-2-yl)-1H-indazol-6-yl)phenyl)-2-methoxy-pyridine-3-sulfonamide] it was less than 500 nM; in that of `Cc1nn(C)c(C)c1S(=O)(=O)Nc1ccc(F)c(-c2ccc3c(-c4ncc[nH]4)n[nH]c3c2F)c1F` [Example 2E, N-(2,4-difluoro-3-(7-fluoro-3-(1H-imidazol-2-yl)-1H-indazol-6-yl)phenyl)-1,3,5-trimethyl-1H-pyrazole-4-sulfonamide], 500 to 2500 nM. In turn, `Cc1nc(C)c(S(=O)(=O)Nc2cc(F)cc(-c3ccc4c(-c5ncc[nH]5)n[nH]c4c3F)c2F)s1` [Example 3BY, N-(2,5-difluoro-3-(7-fluoro-3-(1H-imidazol-2-yl)-1H-indazol-6-yl)phenyl)-2,4-dimethylthiazole-5-sulfonamide] yielded an IC50 (Table 9) of less than 500 nM. In the case of `COc1cccc(S(=O)(=O)Nc2ccc(F)c(-c3ccc4c(-c5ncc[nH]5)n[nH]c4c3F)c2F)c1F` [Example 2AP, N-(2,4-difluoro-3-(7-fluoro-3-(1H-imidazol-2-yl)-1H-indazol-6-yl)phenyl)-2-fluoro-3-methoxybenzene-sulfonamide], the IC50 (Table 8) is less than 500 nM.

Compound `COc1ncc(F)cc1S(=O)(=O)Nc1nccc(-c2ccc3c(-c4ncc[nH]4)n[nH]c3c2F)c1C#N` [Example 31] had a concentration for half-maximal inhibition (IC50) (Table 9) of 500 to 2500 nM. In turn, `COc1ncc(Cl)cc1S(=O)(=O)Nc1ncc(F)c(-c2ccc3c(-c4ncc[nH]4)n[nH]c3c2F)c1F` [Example 6, 5-Chloro-N-(3,5-difluoro-4-(7-fluoro-3-(1H-imidazol-2-yl)-1H-indazol-6-yl)pyridin-2-yl)-2-methoxypyridine-3-sulfonamide] registered an IC50 (Table 8) of less than 500 nM. In turn, `Cc1ncc(F)cc1S(=O)(=O)Nc1ccc(F)c(-c2ccc3c(C(=O)NCCCN(C)C)n[nH]c3c2F)c1F` [Example 3CI, 6-(2,6-difluoro-3-((5-fluoro-2-methylpyridine)-3-sulfonamido)phenyl)-N-(3-(dimethylamino)propyl)-7-fluoro-1H-indazole-3-carboxamide] yielded an IC50 (Table 9) of 500 to 2500 nM. On the same count and under the same terms, in the case of `COc1ncc(F)cc1S(=O)(=O)Nc1cc(F)cc(-c2ccc3c(C(N)=O)n[nH]c3c2F)c1F` [Example 3AQ, 6-(2,5-difluoro-3-((5-fluoro-2-methoxypyridine)-3-sulfon-amido)phenyl)-7-fluoro-1H-indazole-3-carboxamide] it was less than 500 nM. As to `O=c1cccc(S(=O)(=O)Nc2ccc(F)c(-c3ccc4c(-c5ncc[nH]5)n[nH]c4c3F)c2F)[nH]1` [Example 2AL, N-(2,4-difluoro-3-(7-fluoro-3-(1H-imidazol-2-yl)-1H-indazol-6-yl)phenyl)-6-oxo-1,6-dihydropyridine-2-sulfonamide], the IC50 (Table 8) was in the range of 2500 to 10000 nM. The compound `COc1ncc(Cl)cc1S(=O)(=O)Nc1ccc(F)c(-c2ccc3c(C(=O)NCCCO)n[nH]c3c2F)c1F` [Example 2CI, 6-(3-((5-chloro-2-methoxy-pyridine)-3-sulfonamido)-2,6-difluorophenyl)-7-fluoro-N-(3-hydroxypropyl)-1H-indazole-3-carboxamide] had an IC50 (Table 8) of less than 500 nM. For the setting “Table 9”, `Cc1c(CO)cc(F)cc1S(=O)(=O)Nc1ccc(F)c(-c2ccc3c(C(=O)Nc4cn[nH]c4)n[nH]c3c2F)c1F` [Example 4K] registered an IC50 of less than 500 nM.
